Source: patent US7196192B2, “28-epirapalogs” (Ariad Gene Therapeutics, Inc., priority 1999, dated 2007)

Experiments:
FKBP = FKBP (Homo sapiens, UniProt P62942); assay: FKBP competitive binding assay based on fluorescence polarization (FP); conditions: competitive FP binding, fluorescein-labelled FK506 probe (AP1491); read-out: FKBP binding IC50
Procedure: A Competitive Binding FP Assay is described in detail in WO99/36553 and WO96/41865. That assay permits the in vitro measurement of an IC50 value for a given compound which reflects its ability to bind to an FKBP-protein in competition with a labeled FKBP ligand, such as, for example, FK506.
(§1) A diverse group of C7-modified 28-epirapalogs were prepared as described in Example 4.

[1] = target: T1, transcriptional switch components containing FKBP and 2098L mutant FRB domains (Homo sapiens, UniProt P42345+P62942); assay: transcription assay in engineered HD1080 cells expressing SEAP (txn 2098L); format: cell-based; conditions: HD1080 cells, FKBP and 2098L mutant FRB switch, SEAP reporter; read-out: txn 2098L EC50
T1 construct: transcriptional switchcomponents containing FKBP and 2098L mutant FRB domains, respectively; fused on or other part: The two switch components are separate chimeric proteins; Neither is given for this cell line
Outline: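 HT1080-type engineered HD1080 cells constitutively express FKBP and 2098L-mutant FRB switch components and express SEAP upon compound-induced multimerization. Compound added to medium; secreted SEAP reporter measured after incubation. EC50 derived.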

murine splenocyte = murine splenocyte assay for immunosuppressive activity; format: cell-based; conditions: Mus musculus, Splenocyte, murine splenocyte assay, immunosuppressive activity; read-out: Splenocyte IC50
Procedure: 3. Conventional murine splenocyte assay for immunosuppressive activity.
as §1

Sequence of FKBP (P62942 whole entry): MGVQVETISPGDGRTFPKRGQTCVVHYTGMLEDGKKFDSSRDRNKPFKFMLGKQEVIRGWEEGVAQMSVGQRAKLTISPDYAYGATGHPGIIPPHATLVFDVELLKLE
T1 sequence (P62942 2-108 limits assumed, stated change not applied, other chains not shown): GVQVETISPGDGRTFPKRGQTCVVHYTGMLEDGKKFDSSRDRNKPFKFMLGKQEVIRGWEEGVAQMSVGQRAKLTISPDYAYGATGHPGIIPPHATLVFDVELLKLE

With `CO[C@H]1C[C@@H]2CC[C@@H](C)[C@@](O)(O2)C(=O)C(=O)N2CCCC[C@H]2C(=O)O[C@H]([C@H](C)C[C@@H]2CC[C@@H](OCc3ccccc3)[C@H](OC)C2)CC(=O)[C@H](C)/C=C(\C)[C@H](O)[C@@H](OC)C(=O)[C@H](C)C[C@H](C)/C=C/C=C/C=C/1C` [43-O-benzyl-28-epirapamycin] the IC50 (FKBP) was 63 nM, the EC50 [1] was 12 nM and the IC50 (murine splenocyte) was ~1200 nM.

For `CO[C@H]1C[C@@H]2CC[C@@H](C)[C@@](O)(O2)C(=O)C(=O)N2CCCC[C@H]2C(=O)O[C@H]([C@H](C)C[C@@H]2CC[C@@H](OC)[C@H](OC)C2)CC(=O)[C@H](C)/C=C(\C)[C@H](O)[C@@H](OC)C(=O)[C@H](C)C[C@H](C)/C=C/C=C/C=C/1C` [43-O-methyl-28-epirapamycin], the IC50 (FKBP) was 34 nM, the EC50 [1] was 3 nM and the IC50 (murine splenocyte) was 20 to 31 nM.
